Where a SMILES comes first, the peptide text is derived from it.
Columns and labels:
[1] = biological target: T1, GST-SHP-1.SH2(C) (Mus musculus, UniProt P29351); experiment: Surface plasmon resonance (BIAcore), SHP-1 C-SH2 domain; format: binding, murine; details: phosphorylated peptide immobilized; 5 μl/min
T1 construct: recombinant fusion proteins corresponding to the isolated N- and C-SH2 domains of SHP-1; made in house; host or cells: E. coli DH5α
T1 sequence (P29351 110-213 limits assumed): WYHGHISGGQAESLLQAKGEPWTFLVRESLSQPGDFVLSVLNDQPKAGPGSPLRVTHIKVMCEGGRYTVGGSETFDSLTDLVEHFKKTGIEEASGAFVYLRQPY
Protocol: (§1) Fusion proteins and surface plasmon resonance analysis. Surface plasmon resonance (SPR) measurements were performed on a BIAcore™ (Pharmacia). The GST-SHP-1.SH2(NC), GST-SHP-1.SH2(N), GST-SHP-1.SH2(C), GST-SHIP.SH2 fusion proteins generated from the murine phosphatase cDNA, were purified from DH5α lysates. Briefly, overnight culture at 37° C. in LB medium containing 50 μg/ml ampicillin was diluted 1/10 in fresh medium, and incubated until the absorbance at 600 nm reaches 1-2. At that point, IPTG was added (1 mM), and incubation continued for an additional 4 hours at 37° C. After centrifugation, bacteria pellet was resuspended in TENGN buffer (50 mM Tris pH 8, 1 mM EDTA, 10% glycerol, 1% NP40, 1 mM DTT, 1 mM PMSF, 10 μg/ml aprotinin and 10 μg/ml leupeptine). Bacteria were lysed by sonication. After centrifugation, supernatant was incubated with Glutathione-Sepharose 4B beads (Pharmacia) overnight at 4° C. with slow shaking. After 3 washes with 50 mM Tris pH 8, elution of the fusion protein was carried out using 50 mM Tris pH 8 supplemented with 10 mM reduced glutathione. Before their use in BIAcore™ experiments, fusion proteins were dialyzed in HBS buffer (10 mM HEPES, 150 mM NaCl, 3.4 mM EDTA). Protein purity was assessed by 12.5% SDS-PAGE, and Coomassie blue staining. The running buffer used in all BIAcore™ experiments consisted of HBS buffer supplemented with 0.05% surfactant P20. For preparation of microchips coated with phosphorylated peptides, immunopure streptavidine (Sigma) was first immobilized onto CMS-sensorchip. Then, biotinylated peptides were injected, and their binding to streptavidine-coated microchips was assessed using anti-phosphotyrosine 4G10 mAb (UHI).
(§2) The measurement of phosphorylated p58.2 peptide binding to GST-SHP-1.SH2(N) and GST-SHP-1.SH2(C) fusion proteins was at a constant 5 μl/min flow rate. In the representative experiment of which results are reported in the above table I, 130 and 160 RU of respectively p58.2.1 and p58.2.2 peptides were immobilized on microchips. The regeneration was performed using HBS buffer supplemented with 0.03% SDS. Results are expressed as corrected resonance units (CRU) corresponding to the raw RU values subtracted from background RU value due to the injection medium. […] koff and kon were calculated from three independent measurements using the BLAevaluation 2.0 software. Kd was calculated from koff/kon.

[2] = biological target: T2, GST-SHP-1.SH2(N) (Mus musculus, UniProt P29351); experiment: Surface plasmon resonance (BIAcore), SHP-1 N-SH2 domain; format: binding, murine; details: for koff / kon: phosphorylated peptide immobilized, 5 μl/min
T2 construct: recombinant fusion proteins corresponding to the isolated N- and C-SH2 domains of SHP-1; made in house; host or cells: E. coli DH5α
T2 sequence (P29351 4-100 limits assumed): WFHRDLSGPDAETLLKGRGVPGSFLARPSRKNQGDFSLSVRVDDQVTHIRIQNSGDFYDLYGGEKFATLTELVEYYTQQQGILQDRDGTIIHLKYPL
Protocol: as §1, §2

Row | Structure (SMILES) | koff [1] [s⁻¹] | kon [1] [M⁻¹ s⁻¹] | Kd [2] [nM] | koff [2] [s⁻¹] | kon [2] [M⁻¹ s⁻¹]
1 | CC(C)C[C@H](NC(=O)[C@H](CCC(N)=O)NC(=O)[C@H](C)NC(=O)[C@H](Cc1ccc(OP(=O)(O)O)cc1)NC(=O)[C@@H](NC(=O)[C@@H](NC(=O)[C@H](CCC(=O)O)NC(=O)[C@H](CCC(N)=O)NC(=O)[C@@H]1CCCN1C(=O)[C@H](CC(=O)O)NC(=O)[C@H](CCC(N)=O)NC(=O)[C@H](CCC(=O)O)NC(=O)[C@H](CC(=O)O)NC(=O)CCCC[C@@H]1SC[C@@H]2NC(=O)N[C@@H]21)C(C)C)[C@@H](C)O)C(=O)N[C@@H](CC(N)=O)C(=O)N[C@@H](Cc1c[nH]cn1)C(=O)O [p58.2.1, DEQDPQEVTY303AQLNH] (HELM PEPTIDE1{[O=C1N[C@H]2[C@H](CS[C@H]2CCCCC(=O)[*:2])N1].D.E.Q.D.P.Q.E.V.T.[O=C([C@H](Cc1ccc(OP(=O)(O)O)cc1)N[*:1])[*:2]].A.Q.L.N.H}$$$$V2.0) | 0.0007 | 5000 | 423 | 0.042 | 100000
2 | CC[C@H](C)[C@H](NC(=O)[C@H](CC(=O)O)NC(=O)[C@@H](NC(=O)[C@@H]1CCCN1C(=O)[C@@H]1CCCN1C(=O)[C@@H](NC(=O)[C@H](CCCCN)NC(=O)[C@@H]1CCCN1C(=O)[C@H](CCCNC(=N)N)NC(=O)[C@H](CCC(N)=O)NC(=O)[C@H](CO)NC(=O)[C@@H]1CCCN1C(=O)[C@H](CCCNC(=N)N)NC(=O)CCCC[C@@H]1SC[C@@H]2NC(=O)N[C@@H]21)[C@@H](C)O)[C@@H](C)O)C(=O)N[C@H](C(=O)N[C@H](C(=O)N[C@@H](Cc1ccc(OP(=O)(O)O)cc1)C(=O)N[C@H](C(=O)N[C@@H](CCC(=O)O)C(=O)N[C@@H](CC(C)C)C(=O)N1CCC[C@H]1C(=O)N[C@@H](CC(N)=O)C(=O)N[C@@H](C)C(=O)N[C@@H](CCC(=O)O)C(=O)N1CCC[C@H]1C(=O)O)[C@@H](C)O)C(C)C)[C@@H](C)CC [p58.2.2, RP SQ RPKTPPTDIIVY333TELPNAEP] (HELM PEPTIDE1{[O=C1N[C@H]2[C@H](CS[C@H]2CCCCC(=O)[*:2])N1].R.P.S.Q.R.P.K.T.P.P.T.D.I.I.V.[O=C([C@H](Cc1ccc(OP(=O)(O)O)cc1)N[*:1])[*:2]].T.E.L.P.N.A.E.P}$$$$V2.0) | 0.0003 | 600 | 3160 | 0.025 | 8000

— US20040038894A1, “Compounds for modulating cell negative regulations and biological applications thereof” (INSTITUT NATIONAL DE LA SANTE ET DE LA RECHERCHE MEDICALE …, priority 1996, published 2004)
